In ChEMBL document CHEMBL4007394, “Type I DNA Topoisomerases” (J Med Chem, 2017) one finds IC50 data, which are given here for two compounds.

Assay [1] concerns the target Bifunctional 3'-5' exonuclease/ATP-dependent helicase WRN (Homo sapiens, UniProt Q14191). The experiment in a line: Inhibition of recombinant WRN (unknown origin) helicase activity expressed in baculovirus expression system using forked duplex DNA as substrate after 15 mins by polyacrylamide gel electrophoresis.
A short description of assay [2]: Inhibition of recombinant Streptococcus pneumoniae R6 topoisomerase-1 expressed in Escherichia coli assessed as reduction in enzyme-catalyzed relaxation of supercoiled pBR322 DNA preincubated for 10 mins by ethidium bromide staining based electrophoresis.

The term IC50 denotes the concentration that gives 50% inhibition.

Sequence of Bifunctional 3'-5' exonuclease/ATP-dependent helicase WRN (Q14191 whole entry): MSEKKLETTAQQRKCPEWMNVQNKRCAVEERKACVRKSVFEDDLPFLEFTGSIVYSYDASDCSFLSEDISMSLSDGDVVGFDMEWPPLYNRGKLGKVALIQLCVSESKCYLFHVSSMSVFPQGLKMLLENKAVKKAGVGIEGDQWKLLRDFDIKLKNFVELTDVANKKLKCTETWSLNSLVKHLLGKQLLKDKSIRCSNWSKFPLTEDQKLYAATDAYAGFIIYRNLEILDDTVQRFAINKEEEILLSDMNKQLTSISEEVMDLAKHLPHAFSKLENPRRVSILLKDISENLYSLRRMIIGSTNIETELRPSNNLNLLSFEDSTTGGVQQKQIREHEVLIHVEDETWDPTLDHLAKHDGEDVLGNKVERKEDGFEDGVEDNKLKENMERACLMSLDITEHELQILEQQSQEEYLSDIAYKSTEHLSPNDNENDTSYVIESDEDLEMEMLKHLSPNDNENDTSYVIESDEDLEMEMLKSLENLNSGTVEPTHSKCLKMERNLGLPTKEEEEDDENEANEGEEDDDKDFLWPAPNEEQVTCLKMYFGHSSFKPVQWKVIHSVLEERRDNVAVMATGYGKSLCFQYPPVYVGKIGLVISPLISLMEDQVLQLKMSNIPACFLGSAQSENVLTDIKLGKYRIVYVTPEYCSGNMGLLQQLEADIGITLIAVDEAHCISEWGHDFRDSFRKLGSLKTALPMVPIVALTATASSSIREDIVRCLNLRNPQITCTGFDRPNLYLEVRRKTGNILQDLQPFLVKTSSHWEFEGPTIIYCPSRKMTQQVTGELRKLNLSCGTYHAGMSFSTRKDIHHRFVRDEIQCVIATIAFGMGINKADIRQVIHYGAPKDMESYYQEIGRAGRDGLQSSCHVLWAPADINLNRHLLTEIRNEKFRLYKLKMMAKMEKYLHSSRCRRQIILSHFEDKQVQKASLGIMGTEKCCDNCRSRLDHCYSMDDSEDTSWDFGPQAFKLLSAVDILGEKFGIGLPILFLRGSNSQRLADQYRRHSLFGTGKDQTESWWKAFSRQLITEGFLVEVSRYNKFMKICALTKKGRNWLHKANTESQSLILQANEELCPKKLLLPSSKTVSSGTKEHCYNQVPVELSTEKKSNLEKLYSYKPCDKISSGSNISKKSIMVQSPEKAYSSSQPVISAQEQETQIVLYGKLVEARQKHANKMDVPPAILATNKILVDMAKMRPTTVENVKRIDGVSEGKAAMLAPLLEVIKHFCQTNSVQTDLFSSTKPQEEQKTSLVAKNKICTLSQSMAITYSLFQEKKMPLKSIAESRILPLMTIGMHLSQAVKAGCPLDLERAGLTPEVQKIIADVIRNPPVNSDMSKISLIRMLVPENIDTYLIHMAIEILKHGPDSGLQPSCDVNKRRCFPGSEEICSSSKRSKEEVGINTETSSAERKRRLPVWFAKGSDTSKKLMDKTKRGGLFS

Consider `CCC(=O)OCN1C(=O)C=CC1=O`, for which the IC50 in assay [1] stood at 3 µM.
For `CNCCc1cc2c(c3c1ccc1cc4c(cc13)OCO4)OCO2`, the IC50 in assay [2] came out at 17 µM.
